“And” between values parts separate entries of the source, which are not always exact repeats. Equal entries are not always repeated. Where two headings read alike, the source gives them in different places.
Assays:
PSMA = molecular target: T1, PSMA (Homo sapiens, UniProt Q04609); assay: Determination of IC50: PSMA affinity, competitive binding on LNCaP cells against ([125I]I-BA)KuE; conditions: LNCaP cells, [125I]IB-KuE c=0.2 nM, 1 h, 4° C.
T1 construct: endogenous in cells; host or cells: LNCaP cells
Experimental: Data are expressed as mean±SD (n=3, in 3 different experiments).
After removal of the culture medium, the cells were treated once with 500 μL of HBSS (Hank's balanced salt solution, Biochrom, Berlin, Germany, with addition of 1% bovine serum albumin (BSA)) and left 15 min on ice for equilibration in 200 μL HBSS (1% BSA). […] Quantification of bound and free radioligand was accomplished in a γ-counter.

[1] = tested on: PSMA-positive LNCaP cells; assay: Internalization in LNCaP cells, normalized to ([125I]I-BA)KuE; type: cell-based; conditions: LNCaP cells, 1 hour, 37° C.
Experimental: Data is corrected for non-specific binding ([…]) and expressed as mean±SD (n=3).
Subsequent to the removal of the culture medium, the cells were washed once with 500 μL DMEM-F12 (5% BSA) and left to equilibrate for at least 15 min at 37° C. in 200 μL DMEM-F12 (5% BSA). Each well was treated with either 25 μL of either DMEM-F12 (5% BSA) or a 100 μM PMPA solution for blockade. Next, 25 μL of the ^68Ga/^18F-labeled PSMA inhibitor (5.0 nM) was added and the cells incubated at 37° C. for 60 min. The experiment was terminated by placing the 24-well plate on ice for 3 min and consecutive removal of the medium. Each well was rinsed with 250 μL HBSS and the fractions from these first two steps combined, representing the amount of free radioligand. Removal of surface bound activity was accomplished by incubation of the cells with 250 μL of ice-cold PMPA (10 μM in PBS) solution for 5 min and rinsed again with another 250 μL of ice-cold PBS. The internalized activity was determined by incubation of the cells in 250 μL 1 M NaOH and the combination with the fraction of a subsequent wash step with 250 μL 1.0 M NaOH. Each experiment (control and blockade) was performed in triplicate. Free, surface bound and internalized activity was quantified in a γ-counter. […] Data were corrected for non-specific internalization and normalized to the specific-internalization observed for the radioiodinated reference compound.

human serum albumin = molecular target: T2, human serum albumin (Homo sapiens, UniProt P02768); assay: HSA binding on Chiralpak HSA column; type: in vitro ADME; conditions: Chiralpak HSA column (50 × 3 mm, 5 μm)
T2 construct: purchased H13H-2433
Experimental: The mobile phase (A: NH4OAc, 50 mM in water, pH 7 and B: isopropanol) was freshly prepared for each experiment and only used for one day. The column was kept at room temperature and each run was stopped after detection of the signal to reduce the acquisition time. All substances were dissolved in a 0.5 mg/ml concentration in 50% 2-propanol and 50% 50 mM pH 6.9 ammonium acetate buffer. […] All nine reference substances were injected consecutively to establish a non-linear regression with Origin Pro 2016G.

[2] = tested on: LNCaP tumor-bearing SCID mice; assay: Biodistribution at 1 h p.i.; type: in vivo
Experimental: FIG. 10: Biodistribution (in % ID/g) of ^18E-labeled rhPSMA tracers at 1 h p.i in LNCaP tumor-bearing SCID mice. Data are expressed as mean±SD (n=4 for rhPSMA7.1, n=5 for 7.2, n=4 for 7.3, n=5 for 7.4 and n=3 for 7-rac).

[3] = tested on: LNCaP tumor-bearing SCID mice; assay: Biodistribution at 1 h p.i. with competition (co-injected PMPA); type: in vivo; conditions: co-injected with PMPA (8 mg/kg)
Experimental: FIG. 11: Biodistribution [% ID/g] of ^18F-rhPSMAs co-injected with PMPA (8 mg/kg) at 1 h p.i in LNCaP tumor-bearing SCID mice. Data are expressed as mean±SD (n=3).

[4] = tested on: LNCaP tumor bearing mouse; assay: Radio-HPLC quantification of relative changes of each rhPSMA7 isomer after [18F]rhPSMA7-rac, 30 min p.i.; type: in vivo, mice; conditions: blood, liver, kidney, urine, 30 min p.i. of [18F][natGa]rhPSMA7-rac
Experimental: Analytical reversed-phase high pressure chromatography (RP-HPLC) were performed using Shimadzu gradient systems (Shimadzu Deutschland GmbH, Neufahrn, Germany), equipped with a SPD-20A UV/Vis detector (220 nm, 254 nm). […] Eluents for all HPLC operations were water (solvent A) and acetonitrile (solvent B), both containing 0.1% trifluoroacetic acid. […] The gradient for all HPLC operations was: 5% B isocratic 0-3 min, 25-35% B 3-43 min, 95-95% B 43-48 min.
In order to quantify the relative uptake of each isomer (rhPSMA-7.1-7.4), a tumor-bearing male CB-17-SCID mouse was injected with the racemic mixture of rhPSMA-7 (180-280 MBq, SA=247-349 GBq/μmol, produced at the Klinikum rechts der Isar in a fully automated procedure). […] The eluate was diluted with water and analysed by radio-HPLC. […]
Tumour and kidneys were separately homogenised in the tissue homogeniser with 1 mL of extraction buffer (850 μL 1 M HEPES pH7.4, 100 μL 20 mM PMPA and 100 μL 1M NaCl) for 30 min. […] The eluate of each organ was diluted with water and analysed by radio-HPLC.
The organs (tumour, kidney, liver) were separately homogenised in a 2 mL tube together with 3 grinding balls (3 mm diameter) and 1 mL of extraction buffer (850 μL 1 M HEPES pH7.4, 100 μL 20 mM PMPA and 100 μL 1M NaCl) for 10 min at 30 Hz. […] The eluate of each organ was diluted with water and analysed by radio-HPLC. […]

T1 sequence (Q04609 whole entry): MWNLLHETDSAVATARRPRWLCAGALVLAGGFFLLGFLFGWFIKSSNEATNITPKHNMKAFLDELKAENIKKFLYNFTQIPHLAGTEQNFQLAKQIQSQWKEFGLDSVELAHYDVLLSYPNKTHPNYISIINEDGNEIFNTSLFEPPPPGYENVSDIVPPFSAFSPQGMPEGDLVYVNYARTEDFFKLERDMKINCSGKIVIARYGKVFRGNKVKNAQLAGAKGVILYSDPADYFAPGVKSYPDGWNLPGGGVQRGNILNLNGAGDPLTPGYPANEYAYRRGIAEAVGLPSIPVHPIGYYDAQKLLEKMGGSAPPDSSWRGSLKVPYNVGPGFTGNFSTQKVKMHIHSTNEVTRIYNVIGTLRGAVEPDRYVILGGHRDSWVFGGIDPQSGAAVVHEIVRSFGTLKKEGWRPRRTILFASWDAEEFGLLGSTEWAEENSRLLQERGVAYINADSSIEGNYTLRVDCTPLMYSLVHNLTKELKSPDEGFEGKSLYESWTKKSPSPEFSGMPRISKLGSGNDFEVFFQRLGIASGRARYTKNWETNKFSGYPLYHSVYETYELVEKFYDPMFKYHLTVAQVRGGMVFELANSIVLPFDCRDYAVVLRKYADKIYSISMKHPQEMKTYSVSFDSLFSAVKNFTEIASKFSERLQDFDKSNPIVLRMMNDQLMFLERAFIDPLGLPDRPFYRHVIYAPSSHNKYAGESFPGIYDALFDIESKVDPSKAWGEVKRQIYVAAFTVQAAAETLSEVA
T2 sequence (P02768 25-609): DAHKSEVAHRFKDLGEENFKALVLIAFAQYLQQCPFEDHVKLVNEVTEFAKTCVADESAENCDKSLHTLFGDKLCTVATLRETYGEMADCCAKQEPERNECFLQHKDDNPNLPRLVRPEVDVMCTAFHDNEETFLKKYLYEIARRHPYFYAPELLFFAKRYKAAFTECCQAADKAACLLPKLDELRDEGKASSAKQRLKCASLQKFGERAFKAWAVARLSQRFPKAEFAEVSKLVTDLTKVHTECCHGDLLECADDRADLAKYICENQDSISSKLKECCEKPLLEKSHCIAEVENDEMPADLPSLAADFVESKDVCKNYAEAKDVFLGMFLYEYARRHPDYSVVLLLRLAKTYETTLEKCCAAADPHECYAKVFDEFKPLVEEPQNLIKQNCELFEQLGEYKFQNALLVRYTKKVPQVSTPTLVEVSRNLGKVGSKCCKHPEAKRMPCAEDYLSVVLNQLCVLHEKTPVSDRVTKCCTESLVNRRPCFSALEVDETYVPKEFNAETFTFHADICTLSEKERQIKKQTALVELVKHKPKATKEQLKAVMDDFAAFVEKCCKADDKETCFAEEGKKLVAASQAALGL

CC(C)(C)[Si](F)(c1ccc(C(=O)NC[C@@H](NC(=O)CC[C@H](C(=O)O)N2CCN(CC(=O)[O-])CCN(CC(=O)[O-])CCN(CC(=O)[O-])CC2)C(=O)N[C@H](CCCCNC(=O)CCC(=O)NCCC[C@@H](NC(=O)CC[C@H](NC(=O)N[C@@H](CCC(=O)O)C(=O)O)C(=O)O)C(=O)O)C(=O)O)cc1)C(C)(C)C.[Ga+3] [rhPSMA7.1, [^19F][^natGa]D-Dap-R-DOTAGA-rhPSMA7]
IC50 (PSMA; HBSS+1% BSA, single measurements, read-out: individual IC50 measurements): 5.04 nM and 7.11 nM and 8.31 nM and 4.97 nM and 6.44 nM and 8.74 nM and 6.91 nM and 7.27 nM
IC50 (PSMA; mean of individual measurements, read-out: IC50 Mean): 6.85 nM
individual internalization rates ([1]; c=0.5 nM, single measurements): 77.5 % of [^125I]IB-KuE and 61.8 % of [^125I]IB-KuE and 70.6 % of [^125I]IB-KuE and 68.0 % of [^125I]IB-KuE and 67.9 % of [^125I]IB-KuE and 71.5 % of [^125I]IB-KuE
internalization rate Mean ([1]; mean): 69.55 % of [^125I]IB-KuE
HSA Binding (human serum albumin): 97.7%
Biodistribution adrenals [2]: 2.0 ± 0.25 % ID/g
Biodistribution blood [2]: 0.53 ± 0.13 % ID/g
Biodistribution bone [2]: 0.50 ± 0.31 % ID/g
Biodistribution heart [2]: 0.53 ± 0.03 % ID/g
Biodistribution intestine [2]: 0.30 ± 0.16 % ID/g
Biodistribution kidneys [2]: 220 ± 24.8 % ID/g
Biodistribution liver [2]: 0.75 ± 0.62 % ID/g
Biodistribution lung [2]: 1.1 ± 0.21 % ID/g
Biodistribution muscle [2]: 0.32 ± 0.30 % ID/g
Biodistribution pancreas [2]: 0.45 ± 0.12 % ID/g
Biodistribution spleen [2]: 20.0 ± 4.2 % ID/g
Biodistribution stomach [2]: 0.28 ± 0.17 % ID/g
Biodistribution tumor ([2]; LNCaP tumor): 14.1 ± 4.1 % ID/g
Biodistribution adrenals [3]: 0.003 ± 0.004 % ID/g
Biodistribution blood [3]: 0.86 ± 0.40 % ID/g
Biodistribution bone [3]: 0.33 ± 0.24 % ID/g
Biodistribution heart [3]: 0.37 ± 0.16 % ID/g
Biodistribution intestine [3]: 0.66 ± 0.32 % ID/g
Biodistribution kidneys [3]: 10.9 ± 2.5 % ID/g
Biodistribution liver [3]: 0.43 ± 0.07 % ID/g
Biodistribution lung [3]: 0.85 ± 0.29 % ID/g
Biodistribution muscle [3]: 0.17 ± 0.15 % ID/g
Biodistribution pancreas [3]: 0.16 ± 0.10 % ID/g
Biodistribution spleen [3]: 0.21 ± 0.08 % ID/g
Biodistribution stomach [3]: 0.97 ± 0.81 % ID/g
Biodistribution tumor ([3]; LNCaP tumor): 0.94 ± 0.22 % ID/g
percentage change of isomer in sample with respect to its proportion in the injected solution [4]: largest positive percentage change

— patent US12357711B2, “PSMA binding dual mode radiotracer and therapeutic” (Technische Universität München, priority 2019, dated 2025)
